Data from ChEMBL document CHEMBL1201862, “PubChem BioAssay data set” (2004).

How the values were obtained:
Cytochrome P450 2D6 = Cytochrome P450 2D6 (Homo sapiens, UniProt P10635);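 further: CYP2D6 member of a cytochrome P450 panel assay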
Cytochrome P450 2C9 = Cytochrome P450 2C9 (Homo sapiens, UniProt P11712)
[1] = molecular target: T1, Heat shock factor protein 1 (Mus musculus, UniProt P38532); experiment: inhibition of MG132-induced HSE-luciferase signal, confirmation, cell-based, NIH3T3, luminescence, dose retest (AID 2382); format: functional;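 further: NIH3T3 fibroblasts with HSF1-driven luciferase reporter stressed by proteasome inhibitor MG132; luminescence from HSF1-driven luciferase expression after 8 hours of MG132 stress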
T1 sequence (P38532 whole entry): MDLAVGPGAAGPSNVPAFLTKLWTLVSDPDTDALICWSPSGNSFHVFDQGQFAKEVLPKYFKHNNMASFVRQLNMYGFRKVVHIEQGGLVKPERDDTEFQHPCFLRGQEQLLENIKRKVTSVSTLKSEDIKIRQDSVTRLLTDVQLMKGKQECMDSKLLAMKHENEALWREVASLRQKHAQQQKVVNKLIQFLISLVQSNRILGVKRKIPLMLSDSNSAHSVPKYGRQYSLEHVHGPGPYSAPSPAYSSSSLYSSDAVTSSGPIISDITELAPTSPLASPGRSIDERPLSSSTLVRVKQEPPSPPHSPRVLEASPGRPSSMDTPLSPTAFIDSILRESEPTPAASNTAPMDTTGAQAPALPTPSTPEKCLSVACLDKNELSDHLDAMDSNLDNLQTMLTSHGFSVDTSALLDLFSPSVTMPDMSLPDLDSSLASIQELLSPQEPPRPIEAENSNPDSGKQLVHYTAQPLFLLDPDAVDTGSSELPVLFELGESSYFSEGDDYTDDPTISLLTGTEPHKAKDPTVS

Cytochrome P450 3A4 = Cytochrome P450 3A4 (Homo sapiens, UniProt P08684);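 further: CYP3A4 tested as one member of a cytochrome P450 panel screen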
Cytochrome P450 2C19 = Cytochrome P450 2C19 (Homo sapiens, UniProt P33261); experiment: Cytochrome panel assay with activity outcomes. Panel member name: p450-cyp2c19 Compounds with AC50 equal or less than 10 uM are considered active; format: functional; settings: read-out: AC50
Cytochrome P450 1A2 = molecular target: T2, Cytochrome P450 1A2 (Homo sapiens, UniProt P05177);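 further: PubChem cytochrome P450 panel assay, CYP1A2 panel member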
T2 sequence (P05177 whole entry): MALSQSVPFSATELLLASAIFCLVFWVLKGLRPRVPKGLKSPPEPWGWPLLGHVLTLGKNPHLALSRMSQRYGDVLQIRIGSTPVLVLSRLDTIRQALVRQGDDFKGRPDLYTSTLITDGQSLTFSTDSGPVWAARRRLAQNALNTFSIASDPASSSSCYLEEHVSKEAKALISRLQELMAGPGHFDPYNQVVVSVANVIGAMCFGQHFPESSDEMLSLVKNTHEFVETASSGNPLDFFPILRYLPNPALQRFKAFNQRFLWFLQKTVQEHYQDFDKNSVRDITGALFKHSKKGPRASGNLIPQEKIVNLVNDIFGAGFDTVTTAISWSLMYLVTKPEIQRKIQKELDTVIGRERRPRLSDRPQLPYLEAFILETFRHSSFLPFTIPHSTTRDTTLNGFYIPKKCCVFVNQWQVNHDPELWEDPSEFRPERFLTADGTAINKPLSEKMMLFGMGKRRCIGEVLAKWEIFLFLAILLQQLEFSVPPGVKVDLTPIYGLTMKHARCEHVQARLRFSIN

Cytochrome P450 3A4, sequence (P08684 whole entry): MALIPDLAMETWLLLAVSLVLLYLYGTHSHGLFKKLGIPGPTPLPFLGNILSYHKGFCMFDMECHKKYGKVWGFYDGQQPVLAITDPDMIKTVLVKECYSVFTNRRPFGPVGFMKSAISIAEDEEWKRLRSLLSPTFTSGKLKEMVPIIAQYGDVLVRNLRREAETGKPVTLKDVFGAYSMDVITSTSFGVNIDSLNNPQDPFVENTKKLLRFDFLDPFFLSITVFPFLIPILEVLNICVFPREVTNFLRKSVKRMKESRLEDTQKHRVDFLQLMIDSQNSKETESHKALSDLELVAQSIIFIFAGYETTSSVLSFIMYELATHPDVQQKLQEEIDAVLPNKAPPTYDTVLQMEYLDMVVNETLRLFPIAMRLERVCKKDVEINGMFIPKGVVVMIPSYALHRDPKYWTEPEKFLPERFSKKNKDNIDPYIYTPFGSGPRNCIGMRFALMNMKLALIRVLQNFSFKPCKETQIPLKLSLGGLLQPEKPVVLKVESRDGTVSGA
Cytochrome P450 2C19, sequence (P33261 whole entry): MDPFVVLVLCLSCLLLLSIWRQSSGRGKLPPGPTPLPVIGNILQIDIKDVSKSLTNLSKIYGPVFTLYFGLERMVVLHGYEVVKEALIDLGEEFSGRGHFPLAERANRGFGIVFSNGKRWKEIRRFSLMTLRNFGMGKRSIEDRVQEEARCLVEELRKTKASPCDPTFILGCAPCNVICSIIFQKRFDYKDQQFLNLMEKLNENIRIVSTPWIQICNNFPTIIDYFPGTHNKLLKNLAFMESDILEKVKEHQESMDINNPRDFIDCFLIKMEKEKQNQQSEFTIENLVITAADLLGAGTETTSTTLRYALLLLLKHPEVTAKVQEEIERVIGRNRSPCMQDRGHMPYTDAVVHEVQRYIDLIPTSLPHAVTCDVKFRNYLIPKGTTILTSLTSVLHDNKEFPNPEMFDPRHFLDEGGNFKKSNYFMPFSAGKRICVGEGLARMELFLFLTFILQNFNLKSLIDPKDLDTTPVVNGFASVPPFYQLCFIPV
Cytochrome P450 2C9, sequence (P11712 whole entry): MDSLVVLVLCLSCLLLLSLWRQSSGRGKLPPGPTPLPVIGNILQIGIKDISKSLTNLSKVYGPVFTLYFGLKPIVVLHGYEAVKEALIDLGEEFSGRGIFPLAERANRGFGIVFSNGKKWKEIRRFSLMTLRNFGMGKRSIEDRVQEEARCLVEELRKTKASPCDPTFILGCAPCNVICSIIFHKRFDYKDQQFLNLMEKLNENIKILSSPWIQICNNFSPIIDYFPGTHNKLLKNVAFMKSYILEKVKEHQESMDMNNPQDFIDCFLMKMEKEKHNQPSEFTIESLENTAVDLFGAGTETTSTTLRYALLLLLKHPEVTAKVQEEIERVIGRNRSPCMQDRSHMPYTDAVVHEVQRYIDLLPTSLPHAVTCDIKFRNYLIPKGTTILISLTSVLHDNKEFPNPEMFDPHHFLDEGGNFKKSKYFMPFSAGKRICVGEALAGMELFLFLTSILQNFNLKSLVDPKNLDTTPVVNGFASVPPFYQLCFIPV
Cytochrome P450 2D6, sequence (P10635 whole entry): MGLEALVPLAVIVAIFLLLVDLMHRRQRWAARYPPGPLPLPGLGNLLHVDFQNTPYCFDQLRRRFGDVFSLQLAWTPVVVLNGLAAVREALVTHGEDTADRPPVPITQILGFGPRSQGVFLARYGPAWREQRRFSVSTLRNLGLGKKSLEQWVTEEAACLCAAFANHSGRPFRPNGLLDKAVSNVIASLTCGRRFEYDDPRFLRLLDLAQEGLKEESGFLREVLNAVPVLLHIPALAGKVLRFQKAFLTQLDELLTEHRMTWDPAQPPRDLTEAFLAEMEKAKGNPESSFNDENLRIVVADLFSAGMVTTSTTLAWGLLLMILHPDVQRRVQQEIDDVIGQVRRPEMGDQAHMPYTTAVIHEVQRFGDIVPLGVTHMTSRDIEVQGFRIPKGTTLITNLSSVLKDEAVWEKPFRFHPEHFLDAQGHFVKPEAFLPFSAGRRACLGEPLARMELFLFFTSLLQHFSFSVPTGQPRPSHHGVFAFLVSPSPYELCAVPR

| SMILES | EC50 [1] | AC50 (Cytochrome P450 3A4) | other results |
| --- | --- | --- | --- |
| COc1ccc2c(c1)CCc1c(C(=O)N3CCCCCC3)noc1-2 | – | – | AC50 (Cytochrome P450 2D6): 15.8 µM (inconclusive); AC50 (Cytochrome P450 2C9): 25.1 µM (inconclusive) |
| NC(=O)c1ccc[n+](CC(=O)OCCC23CC4CC(CC(C4)C2)C3)c1 | > 195 µM (not active) | – | AC50 (Cytochrome P450 2D6): 39.8 µM (inconclusive) |
| O=C1CC(N2CCCCC2)C(=O)N1c1ccccc1 (stereo not given) | > 195 µM (not active) | – | – |
| CCOC(=O)c1sc(NC(=O)CSc2nnc(-c3ccccc3)[nH]2)c(C#N)c1C | > 195 µM (not active) | – | – |
| O=c1[nH]c2ccccc2/c(=N\S(=O)(=O)c2ccc(Cl)cc2)n1-c1ccccc1 | – | 2.82 µM (inconclusive) | AC50 (Cytochrome P450 2C19): 25.1 µM (inconclusive); AC50 (Cytochrome P450 2C9): 0.891 µM (inconclusive); AC50 (Cytochrome P450 1A2): 8.91 µM (inconclusive) |
| O=C(OCn1nnc2ccccc2c1=O)c1cc(-c2ccccc2)nc2ccccc12 | > 195 µM (not active) | – | – |
| O=c1[nH]c(=S)[nH]c(-c2ccccc2)c1Cc1c(O)ccc2ccccc12 [CAMBINOL] | – | 0.631 µM (inconclusive) | AC50 (Cytochrome P450 2C19): 0.0794 µM (inconclusive); AC50 (Cytochrome P450 2C9): 7.94 µM (inconclusive); AC50 (Cytochrome P450 1A2): 1 µM (inconclusive) |
| CC(=O)c1c(O)cc(=O)n(-c2ccccc2)c1-c1ccc(C)cc1 | – | – | AC50 (Cytochrome P450 2D6): 0.00501 µM (inconclusive); AC50 (Cytochrome P450 2C9): 15.8 µM (inconclusive) |
| CN=C(S)N(CCc1c(C)[nH]c2ccc(F)cc12)Cc1cccnc1 | > 195 µM (not active) | – | – |
| CC1=C/C(=N/O)C([C@H]2C=C(C)CC(C)(C)[C@@H]2O)C(C)(C)C1 (stereo not given in full) | – | 5.01 µM (inconclusive) | – |
| C=CCC1(C(=O)NCCO)CCN(C(=O)OC(C)(C)C)CC1 | > 195 µM (not active) | – | – |
| COc1cccc(C(c2sc3nc(C)nn3c2O)N2CCN(C(=O)c3ccco3)CC2)c1 (stereo not given) | > 195 µM (not active) | – | – |
| O=C(Nc1ccc2c(c1)nc1n2CCN(C2CCCCC2)C1)NC1CCCCC1 | – | 15.8 µM (inconclusive) | – |
| CO[C@H]1COC(=O)[C@@H](C)COC(=O)[C@@H](COCc2ccccc2)NC(=O)C/C=C\[C@H]1C | – | 3.98 µM (inconclusive) | – |
| CCC(C)NCc1ccc(C(=O)OC)o1 (stereo not given) | – | – | AC50 (Cytochrome P450 2D6): 14.1 µM (inconclusive); AC50 (Cytochrome P450 2C19): 15.8 µM (inconclusive); AC50 (Cytochrome P450 2C9): 0.447 µM (inconclusive) |
| CCC(Nc1cc(OC)ccc1OC)=C1C(=O)NC(=O)NC1=O | – | 39.8 µM (inconclusive) | AC50 (Cytochrome P450 2C19): 31.6 µM (inconclusive) |
| CC(C)CC(=O)N1CCC(O)(CS(=O)(=O)Cc2ccc(Cl)cc2)CC1 | – | 8.91 µM (inconclusive) | – |
| Cc1cccc(NS(=O)(=O)c2cc3c(cc2C)NC(=O)CO3)c1 | > 195 µM (not active) | – | – |
| COc1ccc(O[C@H]2C=C[C@@H](c3ccccc3)O[C@H]2COC(=O)CC/C(C)=N\O[C@@H](C)c2cn([C@H]3COC[C@H]3O)nn2)cc1 | – | – | AC50 (Cytochrome P450 2D6): 7.94 µM (inconclusive) |
| O=C(N/N=C\c1c[nH]nc1-c1ccccc1)c1cccs1 | > 195 µM (not active) | – | – |
| COc1ccc(Br)cc1CN1CCN(CCO)CC1 | > 195 µM (not active) | – | – |
| O=C1CC(=O)N(CCc2ccc(F)cc2)C(=O)N1 | – | 31.6 µM (inconclusive) | AC50 (Cytochrome P450 2C19): 31.6 µM (inconclusive); AC50 (Cytochrome P450 2C9): 25.1 µM (inconclusive) |
| CN(C(=O)c1ccc(OC2CCN(Cc3ccccn3)CC2)cc1)C1CCCCC1 | > 195 µM (not active) | – | – |
| CS(=O)(=O)Nc1cccc(-c2cncnc2Nc2ccc(F)cc2)c1 | – | – | AC50 (Cytochrome P450 2D6): 20 µM (inconclusive) |
| COc1ccc(N2CCN(C(CNC(=O)C(=O)NCc3ccncc3)c3ccco3)CC2)cc1 (stereo not given) | > 195 µM (not active) | – | – |
| CCOC(=O)C1CCCN(CCC(=O)Nc2cc(OC)ccc2OC)C1 (stereo not given) | > 195 µM (not active) | – | – |
